Counter-ions that a name gives are not always drawn.

For this assay, the species on record is Rattus norvegicus. Put plainly: Vasorelaxant activity expressed as negative logarithm of the concentration causing a 50% inhibition of spontaneous myogenic activity in rat portal vein. Type of assay: functional.
Consider `CCC(C)(C)/N=C(\NC#N)Nc1cccnc1`, for which the pD2 was found to be 8.75.

Consider `CC1(C)C=C(n2ccccc2=O)c2cc(C#N)ccc2O1` [BIMAKALIM], for which the pD2 stood at 8.2. As for `CC(N/C(=N\C#N)Nc1ccncc1)C(C)(C)C` (stereo in doubt; 12) [PINACIDIL ANHYDROUS], the pD2 was determined as 6.11. The same measure for `CC(N/C(=N\C#N)Nc1ccncc1)C(C)(C)C` (stereo in doubt; 11) [PINACIDIL ANHYDROUS]: 7.47. Consider `CC1(C)Oc2ccc(C#N)cc2C(N2CCCC2=O)C1O` (configuration not stated) [CROMAKALIM], for which the pD2 came to 5.66.

`CC1(C)Oc2ccc(C#N)cc2[C@@H](N2CCCC2=O)[C@@H]1O` [LEVCROMAKALIM]: the pD2 was 7.89. Consider `CC1=Nc2ccc(Cl)cc2S(=O)(=O)N1` [DIAZOXIDE], for which the pD2 was found to be 5.5. The same measure for `CC1(C)Oc2ccc(C#N)cc2[C@H](OC2=CC(=O)CC2)[C@H]1O`: 5.26. Consider `C[C@@H](N/C(=C\[N+](=O)[O-])Nc1cccnc1)C(C)(C)C`, for which the pD2 came out at 6. The result for `CC1(C)Oc2ccc(C#N)cc2[C@@H](OC2=CC(=O)CC2)[C@@H]1O` reads 7.85; that for `Nc1cc(N2CCCCC2)nc(N)[n+]1OS(=O)(=O)[O-]` [MINOXIDIL SULFATE], 7.14. The result for `C[C@H](N/C(=C\[N+](=O)[O-])Nc1cccnc1)C(C)(C)C` reads 7.96.

For the origin of these results see ChEMBL document CHEMBL1126732, “Synthesis of and radioligand binding studies with a tritiated pinacidil analogue: receptor interactions of structurally different classes of potassium channel openers and blockers” (J Med Chem, 1993).
